Laboratory results: US10745346B2, “Agonists of protein tyrosine phosphatase SHP-1” (priority 2015, dated 2020)

Columns and labels:
[1] = target: Recombinant SHP-1 protein (Homo sapiens, UniProt P29350); experiment: SHP-1 phosphatase activity assay (RediPlate 96 EnzChek Tyrosine Phosphatase Assay kit); assay type: biochemical; conditions: SC derivatives at 1 μM for 2 hr; recombinant SHP-1 25 ng; control DMSO = 100; mean±SD (N=3)
Summary of the method: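 Recombinant human SHP-1 (25 ng) was incubated for 2 h with compound at 1 μM, using a DMSO solvent control. Tyrosine phosphatase activity was then measured with the EnzChek kit by absorbance at 465 nm. Values are mean±SD, N=3.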

[2] = test system: PLC5 cells (a hepatocellular carcinoma cell line); experiment: Cytotoxicity, MTT cell viability assay; assay type: cell-based; conditions: 72 h exposure
Protocol: PLC5 cells (a hepatocellular carcinoma cell line) were seeded at 5×10^3 cells per well in 96-well plates. Then, cells were exposed to SC derivatives at the indicated doses for 72 h. After that, cells were incubated with MTT (1 mg/ml) (Sigma-Aldrich, St. Louis, Mo.) for 2 h at 37° C. Cell viability was then assessed by measuring the absorbance at 570 nm using a microplate reader.

Chain of Recombinant SHP-1 protein (P29350 whole entry): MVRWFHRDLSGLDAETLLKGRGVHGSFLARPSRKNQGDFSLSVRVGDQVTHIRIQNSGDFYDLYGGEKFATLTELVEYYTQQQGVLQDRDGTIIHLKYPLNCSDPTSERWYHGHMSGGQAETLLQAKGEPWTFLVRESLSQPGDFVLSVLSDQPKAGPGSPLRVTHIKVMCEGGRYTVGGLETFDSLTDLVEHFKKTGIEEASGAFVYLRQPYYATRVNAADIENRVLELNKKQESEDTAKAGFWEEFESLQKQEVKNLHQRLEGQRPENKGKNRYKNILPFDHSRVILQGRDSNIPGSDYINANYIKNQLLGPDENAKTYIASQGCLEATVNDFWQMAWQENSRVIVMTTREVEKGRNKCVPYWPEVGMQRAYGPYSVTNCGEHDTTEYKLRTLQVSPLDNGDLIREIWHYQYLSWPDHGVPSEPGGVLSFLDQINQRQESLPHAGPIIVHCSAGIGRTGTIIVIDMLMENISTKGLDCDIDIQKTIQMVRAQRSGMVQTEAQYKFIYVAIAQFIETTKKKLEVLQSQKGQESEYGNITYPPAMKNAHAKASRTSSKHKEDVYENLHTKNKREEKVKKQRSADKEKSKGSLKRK

SMILES | SHP-1 Activity (% of control) [1] | IC50 [2] [µM]
N#Cc1ccc(Oc2ccc3c(c2)OCCN3C(=O)Nc2ccc(Cl)c(C(F)(F)F)c2)cc1 [compound 165, N-(4-chloro-3-(trifluoromethyl)phenyl)-7-(4-cyanophenoxy)-2H-benzo[b][1,4]oxazine-4(3H)-carboxamide] | 169.27 ± 1.19 % of control | > 10
N#Cc1ccc(Oc2ccc3c(c2)OCCN3C(=O)Nc2ccc(F)c(C(F)(F)F)c2)cc1 [compound 166, 7-(4-cyanophenoxy)-N-(4-fluoro-3-(trifluoromethyl)phenyl)-2H-benzo[b][1,4]oxazine-4(3H)-carboxamide] | 51.89 ± 8.16 % of control | 1.32
N#CCc1ccc(NC(=O)N2CCOc3cc(Oc4ccc(C#N)cc4)ccc32)cc1 [compound 167, N-(4-(cyanomethyl)phenyl)-7-(4-cyanophenoxy)-2H-benzo[b][1,4]oxazine-4(3H)-carboxamide] | 110.58 ± 10.14 % of control | 2.55
N#CCc1ccc(NC(=O)Nc2ccc(Oc3ccc(CC#N)cc3)cc2)cc1 [compound 169, 1-(4-(4-(cyanomethyl)phenoxy)phenyl)-3-(4-(cyanomethyl)phenyl)urea] | 126.25 ± 1.46 % of control | > 10
C#Cc1cccc(NC(=O)Nc2ccc(Oc3ccc(CC#N)cc3)cc2)c1 [compound 170, 1-(4-(4-(cyanomethyl)phenoxy)phenyl)-3-(3-ethynylphenyl)urea] | 101.42 ± 7.86 % of control | > 10
N#CCc1ccc(Oc2ccc(NC(=O)Nc3ccc(Cl)c(C(F)(F)F)c3)cc2)cc1 [compound 171, 1-(4-chloro-3-(trifluoromethyl)phenyl)-3-(4-(4-(cyanomethyl)phenoxy)phenyl)urea] | 116.66 ± 17.26 % of control | 0.88
N#CCc1ccc(Oc2ccc(NC(=O)Nc3cc(C(F)(F)F)cc(C(F)(F)F)c3)cc2)cc1 [compound 172, 1-(3,5-bis(trifluoromethyl)phenyl)-3-(4-(4-(cyanomethyl)phenoxy)phenyl) urea] | 215.34 ± 12.22 % of control | 0.41
N#CCc1ccc(Oc2ccc(NC(=O)Nc3cccc(C(F)(F)F)c3)cc2)cc1 [compound 173, 1-(4-(4-(cyanomethyl)phenoxy)phenyl)-3-(3-(trifluoromethyl)phenyl)urea] | 110.75 ± 1.18 % of control | > 10
N#Cc1ccc(Oc2cc(NC(=O)Nc3cc(C(F)(F)F)cc(C(F)(F)F)c3)ccc2Cl)cn1 [compound 182, 1-(3,5-bis(trifluoromethyl)phenyl)-3-(4-chloro-3-((6-cyanopyridin-3-yl)oxy)phenyl)urea] | 110.50 ± 6.08 % of control | 0.56
N#Cc1ccc(Oc2ccc(F)c(NC(=O)Nc3cc(C(F)(F)F)cc(C(F)(F)F)c3)c2)cn1 [compound 183, 1-(3,5-bis(trifluoromethyl)phenyl)-3-(5-((6-cyanopyridin-3-yl)oxy)-2-fluorophenyl)urea] | 353.11 ± 30.81 % of control | 0.53

Now from value to compound, other results behind:

SHP-1 Activity (% of control) [1] | SMILES | IC50 [2] [µM]
147.25 ± 78.63 % of control | N#CCc1ccc(Oc2ccc(NC(=O)Nc3ccc(F)c(C(F)(F)F)c3)cc2)cc1 [compound 168, 1-(4-(4-(cyanomethyl)phenoxy)phenyl)-3-(4-fluoro-3-(trifluoromethyl)phenyl)urea] | 1.07
203.95 ± 30.20 % of control | Cc1cc(Oc2cc(NC(=O)Nc3cccc(C(F)(F)F)c3)ccc2Cl)ccc1C#N [compound 174, 1-(4-chloro-3-(4-cyano-3-methylphenoxy)phenyl)-3-(3-(trifluoromethyl)phenyl)urea] | 1.46
233.37 ± 36.5 % of control | Cc1cc(Oc2cc(NC(=O)Nc3ccc(Cl)c(C(F)(F)F)c3)ccc2Cl)ccc1C#N [compound 175, 1-(4-chloro-3-(4-cyano-3-methylphenoxy)phenyl)-3-(4-chloro-3-(trifluoromethyl)phenyl)urea] | 1.2
112.57 ± 3.69 % of control | Cc1cc(Oc2cc(NC(=O)Nc3cc(C(F)(F)F)cc(C(F)(F)F)c3)ccc2Cl)ccc1C#N [compound 176, 1-(3,5-bis(trifluoromethyl)phenyl)-3-(4-chloro-3-(4-cyano-3-methylphenoxy)phenyl)urea] | 0.65
103.52 ± 1.13 % of control | Cc1cc(Oc2cc(NC(=O)Nc3ccc(F)c(C(F)(F)F)c3)ccc2Cl)ccc1C#N [compound 177, 1-(4-chloro-3-(4-cyano-3-methylphenoxy)phenyl)-3-(4-fluoro-3-(trifluoromethyl)phenyl)urea] | > 10
106.69 ± 9.47 % of control | N#Cc1ccc(Oc2cc(NC(=O)Nc3cccc(C(F)(F)F)c3)ccc2Cl)cc1Cl [compound 178, 1-(4-chloro-3-(3-chloro-4-cyanophenoxy)phenyl)-3-(3-(trifluoromethyl)phenyl)urea] | 1.49
99.11 ± 7.09 % of control | N#Cc1ccc(Oc2cc(NC(=O)Nc3ccc(Cl)c(C(F)(F)F)c3)ccc2Cl)cc1Cl [compound 179, 1-(4-chloro-3-(3-chloro-4-cyanophenoxy)phenyl)-3-(4-chloro-3-(trifluoromethyl)phenyl)urea] | 0.95
105.52 ± 0.87 % of control | N#Cc1ccc(Oc2cc(NC(=O)Nc3cc(C(F)(F)F)cc(C(F)(F)F)c3)ccc2Cl)cc1Cl [compound 180, 1-(3,5-bis(trifluoromethyl)phenyl)-3-(4-chloro-3-(3-chloro-4-cyanophenoxy)phenyl)urea] | 0.78
106.88 ± 3.58 % of control | N#Cc1ccc(Oc2cc(NC(=O)Nc3ccc(F)c(C(F)(F)F)c3)ccc2Cl)cc1Cl [compound 181, 1-(4-chloro-3-(3-chloro-4-cyanophenoxy)phenyl)-3-(4-fluoro-3-(trifluoromethyl)phenyl)urea] | 0.93
